Reference: DBAASP
Values after ≈ are worked out from the molar mass of the structure shown. Values joined by “and” are separate entries in the source; they are usually repeats but may differ in a detail not shown here. Identical values can stand only once. Each block holds one molecule with its values, some of them ahead of it.

Columns and labels:
Test in all cases: ≥ marks a high value that may be exact or a test limit, other limits are often not marked, values filed in µg/mL are converted to µM
[1] = test system: Ureaplasma urealyticum strain 1
[2] = test system: Ureaplasma urealyticum strain 2
[3] = test system: Acinetobacter baumannii ATCC 19606
[4] = test system: Bordetella bronchiseptica CUN 11844-99
[5] = test system: Brucella abortus 9.49 (per-)
[6] = test system: Escherichia coli ATCC 23716
[7] = test system: Escherichia coli ATCC 25922
[8] = test system: Pseudomonas aeruginosa CUN 4158-02
[9] = test system: Staphylococcus aureus ATCC 43300
[10] = test system: Staphylococcus aureus SA113
[11] = test system: Staphylococcus aureus ΔmprFpRBsyn
[12] = test system: Staphylococcus aureus ΔmprF
Staphylococcus aureus = test system: Staphylococcus aureus
Yersinia pestis KIM pYV = test system: Yersinia pestis KIM pYV
Candida albicans SC5314 = test system: Candida albicans SC5314
[13] = test system: Candida glabrata IFM 46861
Candida krusei IFN 5462 = test system: Candida krusei IFN 5462
[14] = test system: Candida tropicalis IFM 46862
[15] = test system: Bacillus thuringiensis serovar israelensis
[16] = test system: Candida glabrata ATCC 2001
[17] = test system: Escherichia coli D31 CGSC 5165
[18] = test system: Escherichia coli DH5alpha
Escherichia coli O157:H7 = test system: Escherichia coli O157:H7
[19] = test system: Staphylococcus aureus 1056
[20] = test system: Candida albicans ATCC 90028
[21] = test system: Candida albicans CIB 45437
[22] = test system: Escherichia coli CIB 84492
[23] = test system: Staphylococcus aureus ATCC 25923
[24] = test system: Staphylococcus aureus CIB 85462
[25] = test system: Staphylococcus aureus NCTC 8325
[26] = test system: Candida albicans ATCC 10261
Klebsiella pneumoniae = test system: Klebsiella pneumoniae
[27] = test system: Pseudomonas aeruginosa ATCC 27853
Serratia marcescens = test system: Serratia marcescens
[28] = test system: Yersinia enterocolitica O:9 96-C

MIC [1]: ≥ 46 µM | MIC [2]: ≥ 46 µM
SMILES: CC[C@H](C)[C@H](NC(=O)[C@H](CCSC)NC(=O)[C@H](CC(=O)O)NC(=O)[C@@H](NC(=O)[C@H](CCSC)NC(=O)[C@H](Cc1ccccc1)NC(=O)[C@H](CC(N)=O)NC(=O)[C@H](Cc1ccccc1)NC(=O)CNC(=O)[C@H](CCCCN)NC(=O)[C@H](CC(N)=O)NC(=O)[C@H](CO)NC(=O)[C@@H](N)CCCN=C(N)N)C(C)C)C(=O)N[C@@H](CCC(N)=O)C(=O)N[C@@H](C)C(=O)N[C@@H](CC(C)C)C(=O)N[C@@H](CO)C(=O)N[C@@H](CCCCN)C(N)=O [RSNKGFNFMVDMIQALSK]

SMILES: CC[C@H](C)[C@H](NC(=O)[C@H](CCCN=C(N)N)NC(=O)[C@H](CCCCN)NC(=O)[C@H](CO)NC(=O)[C@@H](NC(=O)[C@@H](N)CCCCN)[C@@H](C)CC)C(=O)N[C@@H](CC(C)C)C(=O)N[C@H](C(=O)NCC(=O)N[C@@H](CCCCN)C(=O)N[C@@H](CCCCN)C(N)=O)[C@@H](C)O [KISKRILTGKK]
MIC [3]: > 201 µM | MIC [4]: ≥ 201 µM | MIC [5]: ≥ 201 µM | MIC [6]: ≥ 201 µM | MIC [7]: > 201 µM | MIC [8]: ≥ 201 µM | MIC [9]: > 201 µM | MIC [10]: ≥ 201 µM | MIC [11]: ≥ 201 µM | MIC [12]: ≥ 201 µM | MIC (Staphylococcus aureus): > 201 µM | MIC (Yersinia pestis KIM pYV): ≥ 201 µM

MIC (Candida albicans SC5314): 1.6 µM and 2.5 µM | MIC [13]: 2.5 µM (≈ 4.7 µg/mL) | MIC (Candida krusei IFN 5462): 2.5 µM (≈ 4.7 µg/mL) | MIC [14]: 2.5 µM (≈ 4.7 µg/mL)
SMILES: CC(C)[C@H](N)C(=O)N[C@@H](CO)C(=O)N[C@@H](CCCN=C(N)N)C(=O)N[C@@H](CCCN=C(N)N)C(=O)N[C@@H](CCCN=C(N)N)C(=O)N[C@@H](CCCN=C(N)N)C(=O)N[C@@H](CCCN=C(N)N)C(=O)N[C@@H](CCCN=C(N)N)C(=O)NCC(=O)NCC(=O)N[C@@H](CCCN=C(N)N)C(=O)N[C@@H](CCCN=C(N)N)C(=O)N[C@@H](CCCN=C(N)N)C(=O)N[C@@H](CCCN=C(N)N)C(=O)O [VSRRRRRRGGRRRR]

MIC [15]: 24.5 µM (≈ 78.6 µg/mL) | MIC [16]: ≥ 122 µM | MIC [17]: 10 µM (≈ 32.1 µg/mL) | MIC [18]: ≥ 40 µM
SMILES: CC[C@H](C)[C@H](NC(=O)[C@H](Cc1ccccc1)NC(=O)[C@H](CCCCN)NC(=O)[C@H](C)NC(=O)[C@@H](NC(=O)[C@H](CO)NC(=O)[C@H](CCCCN)NC(=O)[C@H](CCSC)NC(=O)[C@@H](NC(=O)[C@H](CCCCN)NC(=O)[C@H](Cc1ccccc1)NC(=O)[C@H](Cc1c[nH]c2ccccc12)NC(=O)[C@H](CCCCN)NC(=O)[C@@H](NC(=O)[C@@H](N)CCCCN)[C@@H](C)CC)[C@@H](C)O)[C@@H](C)CC)C(=O)N[C@@H](C)C(=O)N[C@@H](CCCCN)C(=O)N[C@@H](CCC(=O)O)C(=O)N[C@@H](CCC(N)=O)C(=O)N[C@@H](CCSC)C(=O)N[C@@H](CCCCN)C(=O)N[C@@H](CCCCN)C(=O)N[C@@H](Cc1cnc[nH]1)C(=O)N[C@@H](CC(C)C)C(=O)NCC(=O)NCC(=O)N[C@@H](CCC(=O)O)C(=O)O [KIKWFKTMKSIAKFIAKEQMKKHLGGE]

MIC (Escherichia coli O157:H7): 0.515 µM (≈ 2.41 µg/mL) | MIC [19]: 0.594 µM (≈ 2.78 µg/mL)
SMILES: CC[C@H](C)[C@H](N)C(=O)N1CCC[C@H]1C(=O)N[C@@H](CCCN=C(N)N)C(=O)N1CCC[C@H]1C(=O)N[C@@H](CC(C)C)C(=O)N[C@@H](CC(=O)O)C(=O)N1CCC[C@H]1C(=O)N[C@H]1CSSC[C@@H]2NC(=O)[C@H](CO)NC(=O)[C@H](CCCCN)NC(=O)CNC(=O)[C@H](CC(N)=O)NC(=O)[C@H](CCCN=C(N)N)NC(=O)[C@@H]3CSSC[C@H](NC(=O)[C@H](CCCN=C(N)N)NC(=O)CNC(=O)[C@H](CC(N)=O)NC(=O)[C@H](CCC(N)=O)NC(=O)[C@H](C)NC(=O)[C@H]([C@@H](C)CC)NC1=O)C(=O)N[C@@H](Cc1ccccc1)C(=O)N[C@@H]([C@@H](C)O)C(=O)NCC(=O)N[C@@H]([C@@H](C)CC)C(=O)N[C@@H](CSSC[C@@H](C(=O)N[C@@H](CCCN=C(N)N)C(=O)N[C@@H](CCCN=C(N)N)C(=O)N[C@@H](CCCN=C(N)N)C(=O)O)NC2=O)C(=O)N[C@@H](CCCN=C(N)N)C(=O)N[C@@H](Cc1ccc(O)cc1)C(=O)N1CCC[C@H]1C(=O)N[C@@H](Cc1ccc(O)cc1)C(=O)N[C@@H](Cc1ccccc1)C(=O)N[C@@H](Cc1c[nH]c2ccccc12)C(=O)N[C@@H]([C@@H](C)CC)C(=O)NCC(=O)N[C@@H]([C@@H](C)O)C(=O)N3 [IPRPLDPCIAQNGRCFTGICRYPYFWIGTCRNGKSCCRRR]

MIC [20]: ≥ 100 µM | MIC [21]: 19 µM (≈ 64 µg/mL) | MIC [7]: 12.5 µM (≈ 42.1 µg/mL) | MIC [22]: ≥ 38 µM | MIC [23]: 19 µM (≈ 64 µg/mL) | MIC [24]: 19 µM (≈ 64 µg/mL) | MIC [25]: ≥ 50 µM
SMILES: CC(C)C[C@H](NC(=O)CN)C(=O)N[C@@H](CC(C)C)C(=O)N[C@@H](CC(=O)O)C(=O)N[C@H](C(=O)N[C@@H](Cc1ccccc1)C(=O)N[C@@H](CCCCN)C(=O)N[C@@H](CC(N)=O)C(=O)N[C@@H](CC(C)C)C(=O)N[C@@H](C)C(=O)N[C@@H](CC(C)C)C(=O)N[C@@H](CC(N)=O)C(=O)N[C@@H](C)C(=O)N[C@@H](C)C(=O)N[C@@H](CCCCN)C(=O)N[C@@H](CO)C(=O)N[C@@H](C)C(=O)NCC(=O)N[C@H](C(=O)N[C@@H](CO)C(=O)N[C@H](C(=O)N[C@@H](CC(C)C)C(=O)N[C@@H](CC(N)=O)C(=O)N[C@@H](CO)C(=O)N[C@@H](CC(C)C)C(=O)N[C@@H](CO)C(=O)N[C@H]1CSSC[C@@H](C(=O)O)NC(=O)[C@H]([C@@H](C)O)NC(=O)[C@H](CCCCN)NC(=O)[C@H](CO)NC(=O)[C@H](CC(C)C)NC(=O)[C@H](CCCCN)NC1=O)C(C)C)C(C)C)[C@@H](C)O [GLLDTFKNLALNAAKSAGVSVLNSLSCKLSKTC]

MIC [26]: 6.3 µM and 3.1 µM | MIC (Candida albicans SC5314): 6.3 µM and 3.1 µM | MIC (Klebsiella pneumoniae): > 25 µM and 12.5 µM | MIC [27]: 12.5 µM and 6.3 µM | MIC (Serratia marcescens): 25 µM (≈ 57.8 µg/mL) | MIC [28]: 3.1 µM and 1.6 µM
SMILES: CC[C@H](C)[C@H](NC(=O)[C@H](C)NC(=O)[C@@H](NC(=O)[C@H](Cc1cnc[nH]1)NC(=O)[C@@H]1CCCN1C(=O)[C@H](CC(C)C)NC(=O)[C@@H](NC(=O)[C@H](C)NC(=O)[C@H](CCCN=C(N)N)NC(=O)CNC(=O)[C@@H](NC(=O)[C@H](CCCN=C(N)N)NC(=O)[C@H](C)NC(=O)[C@@H](NC(=O)[C@@H](NC(=O)[C@H](CCCN=C(N)N)NC(=O)[C@@H](NC(=O)[C@H](C)NC(=O)[C@H](CO)NC(=O)[C@H](CCCN=C(N)N)NC(=O)[C@H](CC(C)C)NC(=O)[C@H](C)N)C(C)C)[C@@H](C)O)C(C)C)C(C)C)C(C)C)C(C)C)C(N)=O [ALRSAVRTVARVGRAVLPHVAI]
